“Also recorded” adds a separate entry of the source.
How the values were obtained:
wild-type ELIC [1] = biological target: T1, wild-type ELIC (Dickeya chrysanthemi, UniProt P0C7B7, INS163G); test: Two-electrode voltage clamp, whole-cell currents of wild-type ELIC expressed in Xenopus laevis oocytes; assay type: cell-based, Erwinia chrysanthemi; details: for Activation by amine (whole-cell response): 25 mM amine
T1 construct: expressed in transfected cells; host or cells: Xenopus laevis oocytes injected with cRNA from ELIC-pTLN
Experimental: (§1) Stage V-VI Xenopus laevis oocytes were isolated[72] and deflocculated enzymatically in ND96 buffer without Ca^2+ (96 mM NaCl, 2 mM KCl, 1 mM MgCl2, 2 mM pyruvate, 5 mM HEPES, pH 7.4), but supplemented with 1 mg/mL collagenase B and 1 mg/mL trypsin inhibitor, for 2 h at room temperature under constant stirring. The deflocculation buffer was then gradually removed by washing the oocytes in ND96 buffer (96 mM NaCl, 2 mM KCl, 1 mM MgCl2, 1 mM CaCl2, 2 mM pyruvate, 5 mM HEPES, pH 7.4) for several iterations. The oocytes were then allowed to stir for an additional hour at room temperature under constant stirring with the buffer being periodically replaced until clear. To obtain optimal receptor expression, individually selected and healthy oocytes were injected with 0.2 ng cRNA for wild-type ELIC and 5 ng cRNA for mutants. Subsequently, oocytes were incubated for one day at 16 °C in ND96^+ buffer (96 mM NaCl, 2 mM KCl, 1 mM MgCl2, 1 mM CaCl2, 2 mM pyruvate, and 5 mM HEPES at pH 7.6). After expression, injected oocytes were placed in a RC-1Z oocyte chamber (Harvard Apparatus; Hamden, CT) containing buffer (pH 7.4) composed of 150 mM NaCl, 0.5 mM BaCl2, 10 mM HEPES, and 1 mM dithiothreitol or 1 µM atropine if cysteamine, or ACh, was used in the experiment, respectively. The presence of the reducing agent, dithiothreitol, ensures that the sulfhydryl group of cysteamine remains reduced.
(§2) Once in the oocyte chamber, whole-cell currents were recorded using a two-electrode voltage-clamp apparatus (OC-725C oocyte clamp; Harvard Apparatus), with a buffer flow rate of 5–10 mL min^−1. Currents in response to various additions of cysteamine and/or ACh, were measured with the transmembrane voltage clamped at −60 mV. Dose response curves for each wild-type and mutant ELIC were acquired from at least five oocytes in two different batches.
(§3) For identifying the half maximal effective concentration (EC50) and apparent Hill coefficient (nH) of cysteamine, dose response curves were created by taking the magnitude of each cysteamine-activated peak current (I) and normalizing this value to the maximal peak current in the presence of excess agonist (Imax). The log (base 10) cysteamine concentration in molar was then plotted on the x-axis against the fractional response (I/Imax) on the y-axis. The data was fitted using nonlinear regression with a variable slope sigmoidal dose response (Eq. 1, below) in GraphPad Prism (v.8.0.0).1 y=1/1+10^nH^LogEC50−X
Individual EC50 and Hill coefficients were averaged for each oocyte to derive a mean ± standard deviation. […] […] The log (base 10) ACh concentration was then plotted on the x-axis against the fractional response (I/Io) on the y-axis. Subsequent steps were the same as above for deriving a cysteamine EC50 and Hill coefficient. The individual IC50 and Hill coefficients were averaged for each oocyte to derive a mean ± one standard deviation. Lastly, to identify four normalized response values, cysteamine at the 10% maximal effective concentration (EC10), 20% maximal effective concentration (EC20), EC50 and 90% maximal effective concentration (EC90), was applied in the presence and absence of 25 mM ACh. The cysteamine-activated peak current with 25 mM ACh, was normalized to the cysteamine-activated peak current without ACh.

wild-type ELIC [2] = biological target: T1, wild-type ELIC; details: cited from earlier work
ELIC A75D/F133W = biological target: T2, ELIC A75D/F133W (Dickeya chrysanthemi, UniProt P0C7B7, A75D/F133W/INS163G); test: Two-electrode voltage clamp, A75D/F133W double mutant ELIC expressed in Xenopus laevis oocytes; assay type: cell-based, Erwinia chrysanthemi; details: for Activation by amine (whole-cell response): 25 mM amine; for Activation by amine (whole-cell response) / Effect of co-applied ligand on cysteamine-activated current: cysteamine at its EC50; for Effect of co-applied ligand on cysteamine-activated current: 25 mM ligand, 40 s pulse; for Potentiation of the cysteamine response on co-application: 50 mM co-applied in the middle of a cysteamine pulse at EC50 (6.9 mM); for Response when applied by themselves: 50 mM applied for 40 s without cysteamine
T2 construct: expressed in transfected cells; host or cells: Xenopus laevis oocytes injected with cRNA; DNA construct synthesised by Twist Bioscience
Experimental: as §1, §2, §3
(§4) Individual EC50 and Hill coefficients were averaged for each oocyte to derive a mean ± standard deviation. For identifying a half maximal inhibitory concentration (IC50) and Hill coefficient of ACh, a concentration of cysteamine corresponding to its EC50 was used in the presence of increasing concentrations of ACh. Peak currents elicited from cysteamine with ACh (I) were normalized to the initial cysteamine peak current in the absence of ACh (Io). The log (base 10) ACh concentration was then plotted on the x-axis against the fractional response (I/Io) on the y-axis. Subsequent steps were the same as above for deriving a cysteamine EC50 and Hill coefficient. The individual IC50 and Hill coefficients were averaged for each oocyte to derive a mean ± one standard deviation. Lastly, to identify four normalized response values, cysteamine at the 10% maximal effective concentration (EC10), 20% maximal effective concentration (EC20), EC50 and 90% maximal effective concentration (EC90), was applied in the presence and absence of 25 mM ACh. The cysteamine-activated peak current with 25 mM ACh, was normalized to the cysteamine-activated peak current without ACh.

ELIC A75D = biological target: T3, ELIC A75D (Dickeya chrysanthemi, UniProt P0C7B7, A75D/INS163G); test: Two-electrode voltage clamp, A75D mutant ELIC expressed in Xenopus laevis oocytes; assay type: cell-based, Erwinia chrysanthemi; details: A75D
T3 construct: expressed in transfected cells; host or cells: Xenopus laevis oocytes injected with cRNA from ELIC-pTLN

[3] = biological target: T4, ELIC L240A (L9′A) + A75D/F133W (Dickeya chrysanthemi, UniProt P0C7B7, A75D/F133W/L239A); test: Two-electrode voltage clamp, L9′A + A75D/F133W triple mutant ELIC expressed in Xenopus laevis oocytes; assay type: cell-based, Erwinia chrysanthemi; details: L9′A + A75D/F133W; 30 s applications of ACh 0.5 to 50 mM, then 5 mM cysteamine
T4 construct: expressed in transfected cells; host or cells: Xenopus laevis oocytes injected with cRNA
Experimental: as §1, §2, §3
(§5) Individual EC50 and Hill coefficients were averaged for each oocyte to derive a mean ± standard deviation. For identifying a half maximal inhibitory concentration (IC50) and Hill coefficient of ACh, a concentration of cysteamine corresponding to its EC50 was used in the presence of increasing concentrations of ACh. […]

wild-type ELIC [4] = biological target: T1, wild-type ELIC; test: Two-electrode voltage clamp, whole-cell currents of wild-type ELIC expressed in Xenopus laevis oocytes; assay type: cell-based, Erwinia chrysanthemi; details: WT ELIC, ACh inhibition of GABA-activated current
ELIC I79Y = biological target: T5, ELIC I79Y (Dickeya chrysanthemi, UniProt P0C7B7, I79Y/INS163G); test: Two-electrode voltage clamp, I79Y mutant ELIC expressed in Xenopus laevis oocytes; assay type: cell-based, Erwinia chrysanthemi; details: ACh 0.5 mM to 50 mM, followed by 5 mM cysteamine
T5 construct: expressed in transfected cells; host or cells: Xenopus laevis oocytes injected with cRNA from ELIC-pTLN
Experimental: as §1, §2, §3
as §4, with “The cysteamine-activated peak current with 25 mM ACh, was normalized to the cysteamine-activated peak current without ACh.” left out

ELIC F133W = ELIC F133W (Dickeya chrysanthemi, UniProt P0C7B7, F133W); test: cell-based; assay type: cell-based, Erwinia chrysanthemi; details: F133W
Experimental: as §1, §2, §3, §4

ELIC L240A (L9′A) = biological target: T6, ELIC L240A (L9′A) (Dickeya chrysanthemi, UniProt P0C7B7, L239A); test: Two-electrode voltage clamp, L240A (L9′A) mutant ELIC expressed in Xenopus laevis oocytes; assay type: cell-based, Erwinia chrysanthemi; details: L9′A; 30 s applications of ACh 0.5 to 50 mM, then 5 mM cysteamine
T6 construct: expressed in transfected cells; host or cells: Xenopus laevis oocytes injected with cRNA from ELIC-pTLN
Experimental: as §1, §2, §3, §5

ELIC Y38W [5] = biological target: ELIC Y38W (Dickeya chrysanthemi, UniProt P0C7B7, Y38W); test: Two-electrode voltage clamp, Y38W mutant ELIC expressed in Xenopus laevis oocytes; assay type: cell-based, Erwinia chrysanthemi; details: Y38W
Experimental: as §1, §2, §3, §4

ELIC Y38W [6] = test: as above; assay type: cell-based, Erwinia chrysanthemi; details: Y38W
Experimental: as §1, §2, §3, §4

[7] = ACh inhibition, cysteamine at its EC50
[8] = cysteamine at EC10, EC20, EC50, EC90
[9] = ACh 0.5 mM to 50 mM, followed by 5 mM cysteamine
[10] = WT, 25 mM ligand, 40 s pulse, cysteamine at its EC50

CC(=O)OCCN(C)C [DMAEA, 2-dimethylaminoethyl acetate]
Activation by amine (whole-cell response) (wild-type ELIC [1]; WT): activate | Action on ELIC (wild-type ELIC [2]): able to activate ELIC | Effectiveness of activation compared with wild-type ELIC (ELIC A75D/F133W; 25 mM): much less effective than observed with wild-type ELIC | Activation by amine (whole-cell response) (ELIC A75D/F133W): activate

CCCN [propylamine]
Action on ELIC (wild-type ELIC [2]): agonists

CC(=O)OCC[N+](C)(C)C [ACh, acetylcholine]
Increase in ACh IC50 relative to wild-type (ELIC A75D): 7 fold | Inhibition Hill coefficient (ELIC A75D; [7]): –0.7 ± 0.1 | Effect of 25 mM ACh on cysteamine-activated currents (ELIC A75D; [8]): increasing the concentration of cysteamine reduced the degree of inhibition | Peak current on application of ligand alone (ELIC A75D; [9]): None of the single mutants, nor wild-type ELIC, produced any peak current | Current on application of ligand alone [3]: Neither mutant produced observable current; also recorded: No ACh-induced currents were observed | Inhibition Hill coefficient (wild-type ELIC [4]): –1.0 ± 0.3 | Inhibition Hill coefficient (wild-type ELIC [1]; WT ELIC, ACh inhibition of cysteamine-activated current): –1.1 ± 0.1 | Activation by amine (whole-cell response) (wild-type ELIC [1]; WT): fail to activate | Effect of co-applied ligand on cysteamine-activated current (wild-type ELIC [1]; [10]): completely inhibited | Effect of 25 mM ACh on cysteamine-activated currents (wild-type ELIC [1]; WT, cysteamine at EC10, EC20, EC50, EC90): nearly fully inhibited | Peak current on application of ligand alone (wild-type ELIC [1]; WT, ACh 0.5 mM to 50 mM, followed by 5 mM cysteamine): None of the single mutants, nor wild-type ELIC, produced any peak current | Action on ELIC (wild-type ELIC [2]): competitive antagonist | Peak current on application of ligand alone (ELIC I79Y): None of the single mutants, nor wild-type ELIC, produced any peak current | Inhibition Hill coefficient (ELIC F133W; [7]): –1.1 ± 0.1 | Effect of 25 mM ACh on cysteamine-activated currents (ELIC F133W; [8]): increasing the concentration of cysteamine reduced the degree of inhibition | Peak current on application of ligand alone (ELIC F133W; [9]): None of the single mutants, nor wild-type ELIC, produced any peak current | Current on application of ligand alone (ELIC L240A (L9′A)): Neither mutant produced observable current; also recorded: No ACh-induced currents were observed | Activation by amine (whole-cell response) (ELIC A75D/F133W): fail to activate | Effect of co-applied ligand on cysteamine-activated current (ELIC A75D/F133W): same small degree of potentiation | Potentiation of the cysteamine response on co-application (ELIC A75D/F133W): potentiation | Effect of high ACh concentrations on cysteamine peak current (ELIC A75D/F133W; ACh 50–100 mM, cysteamine at EC50): appeared to potentiate | ACh inhibition of the cysteamine response (ELIC A75D/F133W; cysteamine fixed at EC50 (6.9 mM), ACh up to 100 mM): failed to inhibit; also recorded: no inhibition by ACh is observed | Inhibition Hill coefficient (ELIC Y38W [5]; [7]): –1.4 ± 0.1 | Effect of 25 mM ACh on cysteamine-activated currents (ELIC Y38W [5]; [8]): nearly fully inhibited | Peak current on application of ligand alone (ELIC Y38W [5]; [9]): None of the single mutants, nor wild-type ELIC, produced any peak current | Decrease in ACh IC50 relative to wild-type (ELIC Y38W [6]): 3 fold

NCCCC(=O)O [GABA, γ-aminobutyric acid]
Activation Hill coefficient (wild-type ELIC [1]; WT ELIC, agonist activation): 4.0 ± 0.7 | Increase of cysteamine-activated current by co-applied ligand (wild-type ELIC [1]; [10]): roughly 2 fold | Macroscopic activation/deactivation kinetics of agonist-activated currents (wild-type ELIC [1]; WT, compared with cysteamine, agonists at their EC50): slower macroscopic activation/deactivation kinetics | Action on ELIC (wild-type ELIC [2]): agonist | Activation by amine (whole-cell response) (ELIC A75D/F133W): fails to elicit a response | Effect of co-applied ligand on cysteamine-activated current (ELIC A75D/F133W): same small degree of potentiation

[Cl-].[Na+] [NaCl, sodium chloride]
Response when applied by themselves (ELIC A75D/F133W): negligible response | Potentiation of the cysteamine response on co-application (ELIC A75D/F133W): small, but reproducible, degree of potentiation

C[N+](C)(C)C [tetramethylammonium, Tetramethylammonium]
Activation by amine (whole-cell response) (wild-type ELIC [1]; WT): fail to activate | Activation by amine (whole-cell response) (ELIC A75D/F133W): fail to activate

CN(C)C [trimethylamine, Trimethylamine]
Activation by amine (whole-cell response) (wild-type ELIC [1]; WT): activate | Activation by amine (whole-cell response) (ELIC A75D/F133W): activate

OC[C@H]1O[C@@](CO)(O[C@H]2O[C@H](CO)[C@@H](O)[C@H](O)[C@H]2O)[C@@H](O)[C@@H]1O [sucrose]
Response when applied by themselves (ELIC A75D/F133W): negligible response | Potentiation of the cysteamine response on co-application (ELIC A75D/F133W): did not potentiate

— paper PMC9674596, “Origin of acetylcholine antagonism in ELIC, a bacterial pentameric ligand-gated ion channel” (Communications Biology, 2022)
